Experimental data published in patent US10066190B2, “Mild liquid detergent formulations” (Henkel IP & Holding GmbH, priority 2016, dated 2018).

Tested on: human stratum corneum
Assay: Corneosurfametry test
From the text: Another method to measure the skin irritancy potential is corneosurfametry (CSM) test, a noninvasive quantitative test that measures the interaction between surfactants and human stratum corneum. ([…] et al., Dermatology 189: 152-156 (1994)). Corneosurfametry involves removing a few layers of skin using cyanoacrylate skin surface strippings, short contact time with surfactants followed by staining the samples with fuchian dyes. A […] barrier allows greater penetration of the stain, therefore giving a more intense color, which is measured using colorimetrically with L*a*b* color space. This method is predictive of both protein and lipid damage in the skin. CIM (Color Indicator of Mildness) values are obtained from a corneosurfametry test. In a comparative study, the higher the CIM value, the milder the surfactant formulation. The test surfactant solution can be a solution with 3% active surfactant, or a 10% dilution of a surfactant formulation/product which has a total surfactant concentration of about 10%-25%. Corneosurfametry involves removing a few layers of human skin from the volar forearm of healthy adults using skin surface strippings. The skin was collected with D-Squame tapes (for tests with neutral pH formulas) and with Book tape (for tests with high pH formulas). […] Once the tapes are dry, they were analyzed with spectrophotometer. […]

CIM: 36.84
SMILES: CCCCCCCCCCCCOS(=O)(=O)[O-].[Na+] [1% SDS, SDS]
